The conditions of data set [1]: Crystal; DTA.
The nature of data set [2]: Molar enthalpy of transition or fusion. The following applies: Crystal; DSC.

Numbers after ± are expanded uncertainties.

For the compound `O=[N+]([O-])c1cn[nH]c1[N+](=O)[O-]` [3,4-dinitro-1H-pyrazole], the Normal melting temperature in data set [1] turned out to be 87.83 ± 1.1 °C. The “Molar enthalpy of transition or fusion” value in data set [2] was 2.81 ± 0.203 kcal/mol.

These data come from the NIST ThermoML archive (doi:10.1021/acs.jced.6b00219).
